According to patent US10905691B2, “Use of triazolo(4,5-d)pyrimidine derivatives for prevention and treatment of bacterial infection” (Universite de Liege, priority 2016, dated 2021):
Values after ≈ are worked out from the molar mass of the structure shown.

Key:
[1] = tested on: S. epidermidis mature biofilm; test: Mature biofilm (24-hour) treatment, viable count; format: cell-based, Staphylococcus epidermidis; conditions: 50 μg/ml
Text: In another experiment we let adhere 0.5×10^8 CFU/ml S. epidermidis cells for 4 hr and let the biofilm form for additional 24 hr in presence of 0.25% glucose, at this point we treated the biofilm with several concentrations of Triafluocyl for 24 hr in TSB with 0.25% glucose and determined the viable count (FIG. 7) as well as the percentage of live cells using the BacLight bacterial viability kit (Molecular Probes). For biofilm analysis, we first washed the biofilm to eliminate all planktonic bacteria and then the biofilm was detached mechanically using a scraper. To assure that the aggregates from the biofilm were completely dissociated, the suspension of cells was passed through a needle (0.5×16 mm) and a dilution was plated on TSA plates.

S. aureus (ATCC 25904) = test: Growth kinetics in logarithmic phase (OD600 and viable count); format: cell-based, Staphylococcus aureus; conditions: 20-100 min, FIG. 1
Description: S. aureus (American Type Culture Collection, ATCC 25904) was grown overnight in Tryptic Soy Broth (TSB) medium, diluted 1:100 in fresh TSB, and incubated aerobically at 37° C. until bacteria growth reached a logarithmic phase (OD600=0.25-0.3).
Increasing concentrations of Triafluocyl (Cayman Chemical, Item No. 15425) or vehicle (DMSO) was then added in 5 ml of bacteria suspensions. Bacterial growth was measured after different time intervals (20-100 min) by spectrophotometry (OD600) and by counting the colony-forming units after plating appropriate culture dilutions on TS agar plates.
In FIG. 1 kinetics of S. aureus growth in the presence of an increasing concentrations (1 μg/ml to 20 μg/ml) of Triafluocyl were measured by turbidity measurement (upper graph), and viable count (lower graph). Data represent medians±range (n=3). *p<0.05; **p<0.01, ***p<0.001, Triafluocyl vs vehicle.

S. epidermidis [2] = test: Time-kill study in logarithmic phase; format: cell-based, Staphylococcus epidermidis
Description: To evaluate Triafluocyl antibacterial effect we have tested S. epidermidis liquid growth in the presence of different Triafluocyl concentrations in logarithmic phase. […] A 1:100 inoculum in 50 ml TSB of an O/N culture of S. epidermidis was cultured for 3 hr up to its logarithmic phase (OD600=0.26 and ≈3×10^8 CFU/ml). Bacteria were split in several tubes containing different concentrations of DMSO as vehicle alone or in combination with Triafluocyl in TSB and grown for 100 min at 37° C. with 220 rpm shaking, the OD600 was measured every 20 min.

S. aureus ATCC 6538 = test: MBC and MDK99.9 determination (CFU counting); format: cell-based, Staphylococcus aureus
Description: Further experiments were conducted using different strains of S. aureus, as clinically relevant Gram-positive bacterial strains: ATCC 25904, ATCC 6538, methilcillin-resistant S. aureus (MRSA) ATCC BAA-1556, Glycopeptide intermediate-resistant (GISA) S. aureus Mu-50 (ATCC 700695) in order to determine the Minimal Inhibitory Concentration (MIC) which is the minimal concentration required to prevent bacterial growth; the Minimal Bactericidal Concentration (MBC) which determines the lowest concentration at which an antimicrobial agent kill a particular microorganism and a Minimum Duration for killing 99.9% bacteria (MDK99.9) which is a tolerance metric according to the EUCAST.
MBC and MDK99.9 determination: A single colony selected from the different strains of S. aureus is resuspended and cultured in the appropriate medium (TSB, or BHI) overnight (O/N) in aerobic conditions (37° C. with 220 rpm shaking), next day a 1:100 inoculum in the appropriate medium was incubated in aerobic conditions for 2 h. The culture is then challenged with triafluocyl at MIC concentration or higher concentrations. Bacterial growth was measured after different time intervals by counting the colony-forming units after plating appropriate culture dilutions on BHI agar plates. […] And the real time needed is defined as the MDK99.9. […]

S. aureus Mu50 GISA = test: Killing curve (CFU counting); format: cell-based, Staphylococcus aureus; conditions: Triafluocyl 20 μg/ml vs high dose of Minocycline; FIG. 8B
Description: S. aureus Mu50 GISA was grown overnight in brain heart infusion (BHI) medium, diluted 1:100 in fresh BHI, and incubated aerobically at 37° C. until bacteria growth reached a logarithmic phase (OD600=0.25-0.3).
[…] Bacterial growth was measured after different time intervals by counting the colony-forming units after plating appropriate culture dilutions on BHI agar plates.

[3] = tested on: E. faecalis VRE (ATCC BAA-2365); test: Killing curve (CFU counting); format: cell-based, Enterococcus faecalis; conditions: Triafluocyl 20 μg/ml; Minocycline 10 μg/ml; FIG. 8C
Description: E. faecalis VRE (ATCC BAA-2365) was grown overnight in brain heart infusion (BHI) medium, diluted 1:100 in fresh BHI, and incubated aerobically at 37° C. until bacteria growth reached a logarithmic phase (OD600=0.2-0.25).
Triafluocyl (Cayman Chemical, Item No. 15425) (20 μg/ml), Minocycline (Sigma, 10 μg/ml) or vehicle (DMSO) was then added in 5 ml of bacteria suspensions. Bacterial growth was measured after different time intervals by counting the colony-forming units after plating appropriate culture dilutions on BHI agar plates.

S. epidermidis [4] = test: Growth of low-density inoculum (OD600, 4 hr); format: cell-based, Staphylococcus epidermidis; conditions: inoculum 0.08×10^6 CFU/ml
Text: Moreover, we have tested the effect of Triafluocyl on a low-density inoculum, 0.08×10^6 CFU/ml, from a culture of S. epidermidis in logarithmic phase.

Compound: CCCSc1nc(N[C@@H]2C[C@H]2c2ccc(F)c(F)c2)c2nnn([C@@H]3C[C@H](OCCO)[C@@H](O)[C@H]3O)c2n1 [Triafluocyl, (1S,2S,3R,5S)-3-[7-[(1R,2S)-2-(3,4-difluorophenyl)cyclopropylamino]-5-(propylthio)-3H-[1,2,3]-triazolo[4,5-d]pyrimidin-3-yl]-5-(2-hydroxyethoxy)-1,2-cyclopentanediol]
- number of viable cells in the biofilm ([1]; 24 hr treatment of 24-hour biofilm, 0.25% glucose): 1.5×10^5 CFU/ml
- reduction of viable cells in the biofilm ([1]; 24 hr treatment, versus control): ~3 log
- effect on bacterial growth (turbidity and viable count) (S. aureus (ATCC 25904); 10 μg/ml): able to inhibit bacterial growth
- effect on bacterial growth (turbidity and viable count) (S. aureus (ATCC 25904); 20 μg/ml): potent bactericidal effect
- S. epidermidis growth (OD600) (S. epidermidis [2]; 50 μg/ml): slight bacteriostatic activity
- number of viable cells (S. epidermidis [2]; 50 μg/ml, at 80 min): 3×10^8 CFU/ml
- S. epidermidis growth (OD600) (S. epidermidis [2]; between 10 μg/ml and 20 μg/ml, compared to DMSO (0.25%), 100 min): dose-dependent inhibition
- MDK 99.9 Time (h) needed to kill 99.9% of the started inoculum (S. aureus ATCC 6538): 6 h
- MBC (S. aureus ATCC 6538; Staphylococcus aureus, ATCC6538, cut-off 99.9% reduction in CFU): 20 µg/mL (≈ 38.3 µM)
- antibacterial effect on S. aureus GISA compared with Minocycline (S. aureus Mu50 GISA): quicker and more efficient antibacterial effect
- antibacterial effect on E. faecalis VRE (killing curve) [3]: bactericidal effect
- decrease of OD600 compared to growth in absence of Triafluocyl (S. epidermidis [4]; 5 μg/ml): 50%
- growth (OD600) of low-density inoculum (S. epidermidis [4]; 10 μg/ml): inhibited growth
- growth (OD600) of low-density inoculum (S. epidermidis [4]; 20 μg/ml): inhibited growth
